According to US8415469B2, “Compounds and methods for kinase modulation, and indications therefor” (Plexxikon Inc., priority 2005, dated 2013):

Tests used:
Format in all cases: biochemical
[1] = target: T1, B-Raf V600E (Homo sapiens, UniProt P15056, V600E); assay: AlphaScreen kinase assay, B-Raf V600E; conditions: read-out: IC50, activity toward kinase B-Raf V600E
T1 construct: P4254. pFastBacBD-CDC37 BRAF D437-K722-X, V600E; His6 with pFastBac HT leader (TEV site) (N); made in house; host or cells: Sf9 (baculovirus; chaperone CDC37 co-expressed)

[2] = target: T2, c-Raf-1 (Homo sapiens, UniProt P04049); assay: AlphaScreen kinase assay, c-Raf-1; conditions: read-out: IC50, activity toward kinase c-Raf-1
T2 construct: purchased Upstate Biotechnology

[3] = target: T3, B-Raf (Homo sapiens, UniProt P15056); assay: AlphaScreen kinase assay, B-Raf; conditions: read-out: IC50, activity toward kinase B-Raf
T3 construct: purchased Upstate Biotechnology

[4] = target: T4, FGFR1 (Homo sapiens, UniProt P11362, C488A/C584S); assay: AlphaScreen kinase assay, FGFR1; conditions: read-out: IC50, activity toward kinase FGFR
T4 construct: P1351.pET N6 BI-PTP FGFR A458-E765-X C488A, C584S; made in house; host or cells: E. coli (PTP1B co-expressed)

[5] = target: T5, Ret (Homo sapiens, UniProt P07949); assay: AlphaScreen kinase assay, Ret; conditions: read-out: IC50, activity toward kinase Ret
T5 construct: P1378.pET-SF BI-PTP RET H661-R1012 HIS; made in house
T5 sequence (P07949 with tags, fused parts or gaps): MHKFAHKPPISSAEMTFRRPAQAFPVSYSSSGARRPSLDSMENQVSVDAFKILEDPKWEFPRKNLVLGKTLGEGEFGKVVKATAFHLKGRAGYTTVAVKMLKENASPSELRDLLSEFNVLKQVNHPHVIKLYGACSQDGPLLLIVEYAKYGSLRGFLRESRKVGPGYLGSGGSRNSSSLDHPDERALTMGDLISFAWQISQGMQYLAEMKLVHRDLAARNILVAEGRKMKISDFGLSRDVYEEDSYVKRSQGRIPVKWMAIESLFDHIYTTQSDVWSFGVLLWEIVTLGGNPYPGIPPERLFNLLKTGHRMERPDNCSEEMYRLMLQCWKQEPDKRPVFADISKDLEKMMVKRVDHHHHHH

[6] = target: T6, Jnk2 (Homo sapiens, UniProt P45984); assay: AlphaScreen kinase assay, Jnk2; conditions: read-out: IC50, activity toward kinase Jnk2
T6 construct: purchased Roche Protein Expression Group (Indianapolis, IN)
Description: AlphaScreen assay was used to screen additional kinases. The assay is similarly dependent on the phosphorylation of a peptide substrate. In this assay, an antibody that recognizes phosphorylated substrate is bound to an acceptor bead. The peptide substrate is attached to biotin, which binds to a donor head that contains streptavidin. Thus phosphorylated substrate is bound by antibody and streptavidin, bringing the donor and acceptor heads into close proximity when kinase is not inhibited. The donor produces singlet oxygen which results in emission from the acceptor when they are in close proximity. Conversely, when kinase is inhibited, the donor and acceptor beads are not associated and the emission from the acceptor is reduced.
AlphaScreen assays were done using compounds dissolved in DMSO to a concentration of 20 mM. The compounds were diluted accordingly to the desired final concentrations in each sample well, using 1:3 serial dilution for a total of 8 concentration points.

[7] = target: T7, Flt1 (Homo sapiens, UniProt P17948); assay: AlphaScreen kinase assay, Flt1; conditions: read-out: IC50, activity toward kinase Flt1
T7 construct: P1826.pETN6 BI-PTP FLT1 M799-D1165-X WT; His6 (N); made in house; host or cells: E. coli (PTP1B co-expressed)
T7 sequence (P17948 with tags, fused parts or gaps): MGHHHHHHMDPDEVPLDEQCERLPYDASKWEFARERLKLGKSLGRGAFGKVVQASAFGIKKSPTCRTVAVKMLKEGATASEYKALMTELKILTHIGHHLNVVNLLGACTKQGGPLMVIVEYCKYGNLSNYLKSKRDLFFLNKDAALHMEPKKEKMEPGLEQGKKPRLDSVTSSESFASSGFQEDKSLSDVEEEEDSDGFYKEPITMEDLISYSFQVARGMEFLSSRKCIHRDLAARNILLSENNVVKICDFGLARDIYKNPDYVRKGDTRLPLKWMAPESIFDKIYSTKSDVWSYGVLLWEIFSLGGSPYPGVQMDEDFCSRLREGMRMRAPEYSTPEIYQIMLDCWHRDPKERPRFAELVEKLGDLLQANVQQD
Description: AlphaScreen assays were done using compounds dissolved in DMSO to a concentration of 20 mM. The compounds were diluted accordingly to the desired final concentrations in each sample well, using 1:3 serial dilution for a total of 8 concentration points. Plates were prepared such that each kinase reaction is 20 μl in 1× kinase buffer, 5% DMSO and 10 μM ATP. After incubation of the kinase reaction for 1 hour at room temperature, 5 μl of donor beads in stop buffer (50 mM EDTA in 1× kinase buffer) was added, the sample was mixed and incubated for 20 minutes at room temperature before adding 5 μl of acceptor beads in stop buffer. The samples were incubated for 60 minutes at room temperature and the signal per well was read on AlphaQuest reader.

[8] = target: T8, Kit (Homo sapiens, UniProt P10721); assay: AlphaScreen kinase assay, Kit; conditions: read-out: IC50, activity toward kinase Kit
T8 construct: P1332.N6 BI PTP KIT M552-K948-X COD; His6 (N); made in house; host or cells: E. coli (PTP1B co-expressed)

[9] = target: T9, Fms (Homo sapiens, UniProt P07333); assay: AlphaScreen kinase assay, Fms; conditions: read-out: IC50, activity toward kinase Fms
T9 construct: purchased Upstate Biotechnology

[10] = target: T10, Jnk1 (Homo sapiens, UniProt P45983); assay: AlphaScreen kinase assay, Jnk1; conditions: read-out: IC50, activity toward kinase Jnk1
T10 construct: purchased Upstate Biotechnology

[11] = target: T11, Jnk3 (Homo sapiens, UniProt P53779); assay: AlphaScreen kinase assay, Jnk3; conditions: read-out: IC50, activity toward kinase Jnk3
T11 construct: purchased Upstate Biotechnology

Measured: IC50

T3 sequence (P15056 whole entry): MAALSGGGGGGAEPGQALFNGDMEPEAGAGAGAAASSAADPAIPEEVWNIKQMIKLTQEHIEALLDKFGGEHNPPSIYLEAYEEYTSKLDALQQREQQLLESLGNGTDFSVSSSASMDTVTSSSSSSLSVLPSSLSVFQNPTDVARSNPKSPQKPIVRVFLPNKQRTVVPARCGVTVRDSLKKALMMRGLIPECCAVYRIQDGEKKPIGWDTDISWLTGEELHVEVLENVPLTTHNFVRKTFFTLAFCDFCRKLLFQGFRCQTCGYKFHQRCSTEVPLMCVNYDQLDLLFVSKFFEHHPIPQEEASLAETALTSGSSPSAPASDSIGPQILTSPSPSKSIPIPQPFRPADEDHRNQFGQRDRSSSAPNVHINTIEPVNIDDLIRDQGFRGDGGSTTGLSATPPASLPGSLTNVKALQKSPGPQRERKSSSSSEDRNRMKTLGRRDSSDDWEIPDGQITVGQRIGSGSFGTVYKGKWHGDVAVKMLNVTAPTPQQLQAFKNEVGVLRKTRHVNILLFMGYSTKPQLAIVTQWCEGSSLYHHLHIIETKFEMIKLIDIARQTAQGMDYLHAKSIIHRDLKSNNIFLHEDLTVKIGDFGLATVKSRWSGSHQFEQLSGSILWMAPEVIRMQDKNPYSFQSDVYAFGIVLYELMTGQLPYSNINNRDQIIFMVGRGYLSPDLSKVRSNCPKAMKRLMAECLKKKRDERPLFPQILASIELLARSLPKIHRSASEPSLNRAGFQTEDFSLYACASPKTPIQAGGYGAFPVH
T2 sequence (P04049 whole entry): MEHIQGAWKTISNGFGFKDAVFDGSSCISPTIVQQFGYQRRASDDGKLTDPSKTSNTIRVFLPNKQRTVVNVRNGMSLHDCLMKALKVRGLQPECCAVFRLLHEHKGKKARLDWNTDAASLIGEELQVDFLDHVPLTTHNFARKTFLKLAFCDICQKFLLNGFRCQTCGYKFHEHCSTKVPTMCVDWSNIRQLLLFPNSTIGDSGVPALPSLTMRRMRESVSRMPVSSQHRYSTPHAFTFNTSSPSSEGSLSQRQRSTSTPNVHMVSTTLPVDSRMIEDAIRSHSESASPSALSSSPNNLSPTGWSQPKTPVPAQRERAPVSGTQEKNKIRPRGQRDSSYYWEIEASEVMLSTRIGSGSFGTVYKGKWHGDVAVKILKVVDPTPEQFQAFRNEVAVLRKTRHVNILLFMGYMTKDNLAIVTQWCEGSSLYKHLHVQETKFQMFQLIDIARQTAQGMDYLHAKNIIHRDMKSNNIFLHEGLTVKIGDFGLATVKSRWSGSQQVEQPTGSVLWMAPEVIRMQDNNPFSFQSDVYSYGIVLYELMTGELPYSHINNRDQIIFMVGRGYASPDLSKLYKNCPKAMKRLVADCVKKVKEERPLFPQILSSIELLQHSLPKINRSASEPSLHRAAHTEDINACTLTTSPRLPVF
T9 sequence (P07333 20-972): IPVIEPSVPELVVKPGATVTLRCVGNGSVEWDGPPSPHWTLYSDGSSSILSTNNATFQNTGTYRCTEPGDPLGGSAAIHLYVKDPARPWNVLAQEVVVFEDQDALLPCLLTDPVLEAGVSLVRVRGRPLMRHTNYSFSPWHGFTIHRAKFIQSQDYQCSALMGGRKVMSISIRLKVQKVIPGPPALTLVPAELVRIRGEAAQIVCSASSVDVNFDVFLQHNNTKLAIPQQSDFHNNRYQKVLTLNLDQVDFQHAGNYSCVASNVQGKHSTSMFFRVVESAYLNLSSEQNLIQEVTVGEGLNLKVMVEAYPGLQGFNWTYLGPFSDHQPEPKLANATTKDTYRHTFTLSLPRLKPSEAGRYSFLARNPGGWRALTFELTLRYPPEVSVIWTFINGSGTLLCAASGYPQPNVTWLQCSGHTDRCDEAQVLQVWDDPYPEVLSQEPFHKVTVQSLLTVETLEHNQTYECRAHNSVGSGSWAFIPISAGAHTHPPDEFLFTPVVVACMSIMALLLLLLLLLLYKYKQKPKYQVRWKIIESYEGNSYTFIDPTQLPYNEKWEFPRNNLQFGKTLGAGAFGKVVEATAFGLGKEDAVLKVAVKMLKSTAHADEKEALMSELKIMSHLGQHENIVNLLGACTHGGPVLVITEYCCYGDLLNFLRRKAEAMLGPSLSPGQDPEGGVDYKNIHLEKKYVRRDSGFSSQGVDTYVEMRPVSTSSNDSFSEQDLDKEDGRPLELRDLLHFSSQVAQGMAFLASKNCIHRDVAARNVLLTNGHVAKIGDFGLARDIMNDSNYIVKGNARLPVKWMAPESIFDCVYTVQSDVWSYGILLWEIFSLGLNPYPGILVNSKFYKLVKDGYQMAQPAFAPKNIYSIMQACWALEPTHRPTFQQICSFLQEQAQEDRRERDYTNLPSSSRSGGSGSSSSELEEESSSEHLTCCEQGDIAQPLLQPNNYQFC
T1 sequence (P15056 with tags, fused parts or gaps V600E): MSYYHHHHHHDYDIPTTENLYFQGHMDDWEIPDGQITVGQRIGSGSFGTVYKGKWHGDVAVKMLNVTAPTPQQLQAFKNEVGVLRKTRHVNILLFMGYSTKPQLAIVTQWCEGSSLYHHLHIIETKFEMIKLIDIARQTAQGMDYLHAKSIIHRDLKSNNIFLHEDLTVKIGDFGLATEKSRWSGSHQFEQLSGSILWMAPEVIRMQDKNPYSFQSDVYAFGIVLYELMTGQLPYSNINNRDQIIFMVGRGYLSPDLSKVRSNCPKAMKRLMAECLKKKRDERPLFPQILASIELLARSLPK
T6 sequence (P45984 whole entry): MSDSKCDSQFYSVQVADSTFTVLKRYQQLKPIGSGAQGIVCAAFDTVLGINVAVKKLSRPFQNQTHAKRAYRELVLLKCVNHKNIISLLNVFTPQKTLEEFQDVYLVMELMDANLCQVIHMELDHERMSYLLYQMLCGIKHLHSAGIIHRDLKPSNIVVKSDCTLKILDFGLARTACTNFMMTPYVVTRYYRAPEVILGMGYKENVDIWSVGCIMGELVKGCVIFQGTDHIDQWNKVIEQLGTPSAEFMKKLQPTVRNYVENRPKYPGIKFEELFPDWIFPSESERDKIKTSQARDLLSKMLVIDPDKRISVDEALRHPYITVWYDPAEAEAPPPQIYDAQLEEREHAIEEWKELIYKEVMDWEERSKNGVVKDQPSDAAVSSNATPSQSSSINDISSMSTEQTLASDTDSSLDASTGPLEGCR
T10 sequence (P45983 whole entry): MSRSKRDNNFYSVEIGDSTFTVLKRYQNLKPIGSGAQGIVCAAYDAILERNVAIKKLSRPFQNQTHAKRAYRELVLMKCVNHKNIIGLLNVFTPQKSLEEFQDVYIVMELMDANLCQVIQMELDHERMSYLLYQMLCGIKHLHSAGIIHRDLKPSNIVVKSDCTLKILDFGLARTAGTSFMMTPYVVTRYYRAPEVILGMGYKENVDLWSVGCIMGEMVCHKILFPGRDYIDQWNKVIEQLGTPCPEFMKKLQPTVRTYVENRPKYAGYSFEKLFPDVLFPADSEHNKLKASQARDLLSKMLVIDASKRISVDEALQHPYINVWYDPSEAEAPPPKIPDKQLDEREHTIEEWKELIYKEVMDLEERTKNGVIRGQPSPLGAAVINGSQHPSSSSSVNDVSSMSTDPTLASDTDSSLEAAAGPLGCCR
T8 sequence (P10721 with tags, fused parts or gaps): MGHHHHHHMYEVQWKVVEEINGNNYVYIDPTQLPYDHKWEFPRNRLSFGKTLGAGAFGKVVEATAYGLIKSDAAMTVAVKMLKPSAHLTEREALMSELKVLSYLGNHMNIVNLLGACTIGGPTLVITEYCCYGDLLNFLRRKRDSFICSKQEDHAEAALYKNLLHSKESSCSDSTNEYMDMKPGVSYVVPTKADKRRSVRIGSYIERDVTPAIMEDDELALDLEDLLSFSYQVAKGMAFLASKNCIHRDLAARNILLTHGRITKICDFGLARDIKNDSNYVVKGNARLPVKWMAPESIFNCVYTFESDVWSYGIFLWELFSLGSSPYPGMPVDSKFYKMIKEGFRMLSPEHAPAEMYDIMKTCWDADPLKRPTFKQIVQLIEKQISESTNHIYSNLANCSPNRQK
T4 sequence (P11362 458-765 C488A/C584S): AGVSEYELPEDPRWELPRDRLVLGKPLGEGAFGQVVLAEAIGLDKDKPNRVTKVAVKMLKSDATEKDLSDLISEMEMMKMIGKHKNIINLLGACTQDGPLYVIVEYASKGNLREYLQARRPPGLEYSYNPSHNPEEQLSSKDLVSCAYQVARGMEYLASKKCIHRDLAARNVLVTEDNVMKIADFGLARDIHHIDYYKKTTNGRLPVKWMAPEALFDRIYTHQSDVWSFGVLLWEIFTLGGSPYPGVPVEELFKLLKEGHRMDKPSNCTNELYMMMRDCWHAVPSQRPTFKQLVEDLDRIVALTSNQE
T11 sequence (P53779 whole entry): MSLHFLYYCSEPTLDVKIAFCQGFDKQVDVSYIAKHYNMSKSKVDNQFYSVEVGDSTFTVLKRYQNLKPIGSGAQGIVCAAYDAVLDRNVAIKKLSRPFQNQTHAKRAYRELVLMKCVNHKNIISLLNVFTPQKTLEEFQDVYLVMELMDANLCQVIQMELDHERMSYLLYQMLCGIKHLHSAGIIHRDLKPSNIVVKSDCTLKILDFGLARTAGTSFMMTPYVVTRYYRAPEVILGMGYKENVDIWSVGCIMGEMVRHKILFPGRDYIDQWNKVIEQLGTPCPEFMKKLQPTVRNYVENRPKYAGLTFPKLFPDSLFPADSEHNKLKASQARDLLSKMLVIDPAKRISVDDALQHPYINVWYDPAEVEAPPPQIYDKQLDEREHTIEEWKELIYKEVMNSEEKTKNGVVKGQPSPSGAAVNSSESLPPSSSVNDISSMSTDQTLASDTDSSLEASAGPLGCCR

O=C(c1cccc(O)c1F)c1c[nH]c2ncc(-c3cncnc3)cc12 [Compound P-0744, (2-fluoro-3-hydroxy-phenyl)-(5-pyrimidin-5-yl-1H-pyrrolo[2,3-b]pyridin-3-yl)-methanone]
≤ 10 µM: [1] | [2] | [3] | [4] | [5] | [6]

O=C(Nc1ccc(F)c(Cc2c[nH]c3ncc(Cl)cc23)c1F)NC1CCCC1 [Compound P-1575, 1-[3-(5-Chloro-1H-pyrrolo[2,3-b]pyridin-3-ylmethyl)-2,4-difluoro-phenyl]-3-cyclopentyl-urea]
≤ 10 µM: [1] | [7] | [8] | [9] | [6]

CCCCNC(=O)Nc1ccc(F)c(C(=O)c2c[nH]c3ncc(-c4cccc(S(C)(=O)=O)c4)cc23)c1 [Compound P-1627, 1-Butyl-3-{4-fluoro-3-[5-(3-methanesulfonyl-phenyl)-1H-pyrrolo[2,3-b]pyridine-3-carbonyl]-phenyl}-urea]
≤ 10 µM: [1] | [3] | [9] | [10] | [6]

CCCCNC(=O)n1ccc2c(Cc3c[nH]c4ncc(-c5cccnc5)cc34)cccc21 [Compound P-1656, 4-(5-pyridin-3-yl-1H-pyrrolo[2,3-b]pyridin-3-ylmethyl)-indole-1-carboxylic acid butylamide]
≤ 10 µM: [1] | [3] | [9] | [10] | [6]

O=C(Nc1ccc(C(=O)c2c[nH]c3ncccc23)cc1)Nc1cccc(C(F)(F)F)c1 [Compound P-1671]
≤ 10 µM: [1] | [8] | [2] | [3] | [9] | [6]

CCc1ccc(S(=O)(=O)Nc2ccc(F)c(C(=O)c3c[nH]c4ncc(Cl)cc34)c2F)cc1 [Compound P-1700, N-[3-(5-Chloro-1H-pyrrolo[2,3-b]pyridine-3-carbonyl)-2,4-difluoro-phenyl]-4-ethyl-benzenesulfonamide]
≤ 10 µM: [1] | [8] | [3] | [9] | [6]

O=C(Nc1cccc(C(=O)c2c[nH]c3ncccc23)c1)Nc1ccc(Cl)c(C(F)(F)F)c1 [Compound P-1711, 1-(4-Chloro-3-trifluoromethyl-phenyl)-3-[3-(1H-pyrrolo[2,3-b]pyridine-3-carbonyl)-phenyl]-urea]
≤ 10 µM: [1] | [8] | [3] | [9] | [6]

COc1ccc(NC(=O)Nc2cccc(C(=O)c3c[nH]c4ncc(-c5cccnc5)cc34)c2)cc1 [Compound P-1723, 1-(4-Methoxy-phenyl)-3-[3-(5-pyridin-3-yl-1H-pyrrolo[2,3-b]pyridine-3-carbonyl)-phenyl]-urea]
≤ 10 µM: [1] | [3] | [9] | [10] | [6]

O=C(Nc1cccc(C(=O)c2c[nH]c3ncc(-c4cccnc4)cc23)c1)Nc1ccc(C(F)(F)F)cc1Cl [Compound P-1727, 1-(2-Chloro-4-trifluoromethyl-phenyl)-3-[3-(5-pyridin-3-yl-1H-pyrrolo[2,3-b]pyridine-3-carbonyl)-phenyl]-urea]
≤ 10 µM: [1] | [3] | [9] | [10] | [6]

CCCCOc1ccc(NC(=O)Nc2cccc(C(=O)c3c[nH]c4ncc(-c5cccnc5)cc34)c2)cc1 [Compound P-1729, 1-(4-Butoxy-phenyl)-3-[3-(5-pyridin-3-yl-1H-pyrrolo[2,3-b]pyridine-3-carbonyl)-phenyl]-urea]
≤ 10 µM: [1] | [3] | [9] | [6]

O=C(Nc1cccc(F)c1)Nc1cccc(C(=O)c2c[nH]c3ncc(-c4cccnc4)cc23)c1 [Compound P-1730, 1-(3-Fluoro-phenyl)-3-[3-(5-pyridin-3-yl-1H-pyrrolo[2,3-b]pyridine-3-carbonyl)-phenyl]-urea]
≤ 10 µM: [1] | [3] | [9] | [10] | [6]

O=C(Nc1cccc(C(=O)c2c[nH]c3ncc(-c4cccnc4)cc23)c1)Nc1cc(C(F)(F)F)ccc1Cl [Compound P-1732, 1-(2-Chloro-5-trifluoromethyl-phenyl)-3-[3-(5-pyridin-3-yl-1H-pyrrolo[2,3-b]pyridine-3-carbonyl)-phenyl]-urea]
≤ 10 µM: [1] | [3] | [9] | [6]

O=C(Nc1cccc(C(=O)c2c[nH]c3ncc(Cl)cc23)c1)Nc1ccc(Cl)c(C(F)(F)F)c1 [Compound P-1737, 1-[3-(5-Chloro-1H-pyrrolo[2,3-b]pyridine-3-carbonyl)-phenyl]-3-(4-chloro-3-trifluoromethyl-phenyl)-urea]
≤ 10 µM: [1] | [8] | [2] | [3] | [9] | [6]

O=C(Nc1cccc(C(=O)c2c[nH]c3ncc(-c4ccc(F)cc4)cc23)c1)Nc1ccc(C(F)(F)F)cc1Cl [Compound P-1753, 1-(2-Chloro-4-trifluoromethyl-phenyl)-3-{3-[5-(4-fluoro-phenyl)-1H-pyrrolo[2,3-b]pyridine-3-carbonyl]-phenyl}-urea]
≤ 10 µM: [1] | [11] | [3] | [9] | [6]
